{
  "source": "ChEMBL document CHEMBL2074136",
  "about": "“Citrus juices inhibit the function of human organic anion-transporting polypeptide OATP-B” (Drug Metab Dispos, 2005)",
  "molecules": {"B1": {"name": "Solute carrier organic anion transporter family member 2B1 (Homo sapiens) (protein)", "chain": "MGPRIGPAGEVPQVPDKETKATMGTENTPGGKASPDPQDVRPSVFHNIKLFVLCHSLLQLAQLMISGYLKSSISTVEKRFGLSSQTSGLLASFNEVGNTALIVFVSYFGSRVHRPRMIGYGAILVALAGLLMTLPHFISEPYRYDNTSPEDMPQDFKASLCLPTTSAPASAPSNGNCSSYTETQHLSVVGIMFVAQTLLGVGGVPIQPFGISYIDDFAHNSNSPLYLGILFAVTMMGPGLAFGLGSLMLRLYVDINQMPEGGISLTIKDPRWVGAWWLGFLIAAGAVALAAIPYFFFPKEMPKEKRELQFRRKVLAVTDSPARKGKDSPSKQSPGESTKKQDGLVQIAPNLTVIQFIKVFPRVLLQTLRHPIFLLVVLSQVCLSSMAAGMATFLPKFLERQFSITASYANLLIGCLSFPSVIVGIVVGGVLVKRLHLGPVGCGALCLLGMLLCLFFSLPLFFIGCSSHQIAGITHQTSAHPGLELSPSCMEACSCPLDGFNPVCDPSTRVEYITPCHAGCSSWVVQDALDNSQVFYTNCSCVVEGNPVLAGSCDSTCSHLVVPFLLLVSLGSALACLTHTPSFMLILRGVKKEDKTLAVGIQFMFLRILAWMPSPVIHGSAIDTTCVHWALSCGRRAVCRYYNNDLLRNRFIGLQFFFKTGSVICFALVLAVLRQQDKEARTKESRSSPAVEQQLLVSGPGKKPEDSRV"}},
  "type_in_all_cases": "functional, cell-based",
  "key": {"OATP2B1": {"molecular_target": "T1, OATP2B1 (Homo sapiens, UniProt O94956)", "T1 sequence (O94956 whole entry)": "B1 chain", "test": "(§1) TP_TRANSPORTER: inhibition of Estrone-3-sulfate uptake (Estrone-3-sulfate: 10nM) in OATP2B1-expressing HEK293 cells", "set-up": "scale not given: the % may be the effect or the level left", "settings": "HEK293 cells expressing OATP2B1, probe Estrone-3-sulfate (10 nM)"}, "[1]": {"molecular_target": "T2, Solute carrier organic anion transporter family member 2B1 (Homo sapiens, UniProt O94956)", "T2 sequence (O94956 whole entry)": "B1 chain", "test": "TP_TRANSPORTER: inhibition of glibenclamide uptake (glibenclamide: 10nM) in OATP2B1-expressing HEK293 cells", "set-up": "scale not given: the % may be the effect or the level left"}, "[2]": {"molecular_target": "T2, Solute carrier organic anion transporter family member 2B1", "test": "TP_TRANSPORTER: uptake of DHEAS at a concentration of 17.4nM in OATP2B1-expressing HEK293 cells"}, "[3]": {"molecular_target": "T2, Solute carrier organic anion transporter family member 2B1", "test": "as §1", "set-up": "scale not given: the % may be the effect or the level left", "settings": "hek293"}, "[4]": {"substrate": "COc1ccc(Cl)cc1C(=O)NCCc1ccc(S(=O)(=O)NC(=O)NC2CCCCC2)cc1", "test": "(§2) TP_TRANSPORTER: uptake in OATP2B1-expressing HEK293 cells"}, "[5]": {"substrate": "C[C@]12CC[C@@H]3c4ccc(OS(=O)(=O)O)cc4CC[C@H]3[C@@H]1CCC2=O", "test": "as §2"}},
  "data": [
    {"molecule": "CC(C)=CCC/C(C)=C/COc1c2ccoc2cc2oc(=O)ccc12", "note": "[BERGAMOTTIN]", "values": [
      {"measurement": "Activity", "setting": "OATP2B1", "value": 40, "unit": "%"},
      {"measurement": "Activity", "setting": "[1]", "value": "is not an inhibitor [(-)]"}
    ]},
    {"molecule": "C/C(=C\\COc1c2ccoc2cc2oc(=O)ccc12)CCC(O)C(C)(C)O", "note": "(stereo not drawn) [DIHYDROXYBERGAMOTTIN]", "values": [
      {"measurement": "Activity", "setting": "OATP2B1", "value": 58, "unit": "%"},
      {"measurement": "Activity", "setting": "[1]", "value": 35, "unit": "%"}
    ]},
    {"molecule": "O=C1C[C@@H](c2ccc(O)cc2)Oc2cc(O)cc(O)c21", "note": "[NARINGENIN]", "values": [
      {"measurement": "Activity", "setting": "OATP2B1", "value": 72, "unit": "%"},
      {"measurement": "Activity", "setting": "[1]", "value": 45, "unit": "%"}
    ]},
    {"molecule": "C[C@@H]1O[C@@H](O[C@H]2[C@H](Oc3cc(O)c4c(c3)O[C@H](c3ccc(O)cc3)CC4=O)O[C@H](CO)[C@@H](O)[C@@H]2O)[C@H](O)[C@H](O)[C@H]1O", "note": "[NARINGIN]", "values": [
      {"measurement": "Activity", "setting": "OATP2B1", "value": 61, "unit": "%"},
      {"measurement": "Activity", "setting": "[1]", "value": 70, "unit": "%"}
    ]},
    {"molecule": "COc1ccc(-c2cc(=O)c3c(OC)c(OC)c(OC)c(OC)c3o2)cc1OC", "note": "[NOBILETIN]", "values": [
      {"measurement": "Activity", "setting": "OATP2B1", "value": 40, "unit": "%"},
      {"measurement": "Activity", "setting": "[1]", "value": 58, "unit": "%"}
    ]},
    {"molecule": "C[C@]12CC[C@H](OS(=O)(=O)O)CC1=CC[C@@H]1[C@@H]2CC[C@]2(C)C(=O)CC[C@@H]12", "note": "[PRASTERONE SULFURIC ACID]", "values": [
      {"measurement": "Activity", "setting": "[2]", "value": "substrate [+]"}
    ]},
    {"molecule": "O=c1c(O)c(-c2ccc(O)c(O)c2)oc2cc(O)cc(O)c12", "note": "[QUERCETIN]", "values": [
      {"measurement": "Activity", "setting": "OATP2B1", "value": 80, "unit": "%"},
      {"measurement": "Activity", "setting": "[1]", "value": "is not an inhibitor [(-)]"}
    ]},
    {"molecule": "COc1ccc(-c2cc(=O)c3c(OC)c(OC)c(OC)c(OC)c3o2)cc1", "note": "[TANGERETIN]", "values": [
      {"measurement": "Activity", "setting": "OATP2B1", "value": 89, "unit": "%"},
      {"measurement": "Activity", "setting": "[1]", "value": 25, "unit": "%"}
    ]},
    {"molecule": "APPLE JUICE", "values": [
      {"measurement": "Activity", "setting": "[3]", "value": 89, "unit": "%"},
      {"measurement": "Activity", "setting": "[1]", "value": "is not an inhibitor [(-)]"}
    ]},
    {"molecule": "GRAPEFRUIT JUICE", "values": [
      {"measurement": "Activity", "setting": "[3]", "value": 18, "unit": "%"},
      {"measurement": "Activity", "setting": "[1]", "value": 38, "unit": "%"}
    ]},
    {"molecule": "ORANGE JUICE", "values": [
      {"measurement": "Activity", "setting": "[3]", "value": 45, "unit": "%"},
      {"measurement": "Activity", "setting": "[1]", "value": 50, "unit": "%"}
    ]},
    {"molecule": "B1", "values": [
      {"measurement": "Km", "setting": "[4]", "value": 6.26, "unit": "µM"},
      {"measurement": "Km", "setting": "[5]", "value": 7.14, "unit": "µM"}
    ]}
  ]
}
